Reference: patent US8802597B2, “Herbicidal pyrimidines” (E I du Pont de Nemours and Company, priority 2003, dated 2014)

Experiments:
Assay in all cases: Test C pre/postemergence
Format in all cases: in vivo
[1] = system: bermudagrass (Cynodon dactylon)
Summary of the method: (§1)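 Greenhouse herbicide screen, visual readout. Compound in solvent/surfactant applied preemergence at planting or postemergence to 1- to 4-leaf plants; assessed at 12–14 days on a 0–100 control scale.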

[2] = system: goosegrass (Eleusine indica); conditions: for Goosegrass plant response rating: scale 0 to 100 (0 no effect, 100 complete control)
Summary of the method: as §1

[3] = system: cocklebur (Xanthium strumarium); conditions: for Cocklebur plant response rating: scale 0 to 100 (0 no effect, 100 complete control)
Summary of the method: as §1

[4] = system: velvetleaf (Abutilon theophrasti); conditions: for Velvetleaf plant response rating: scale 0 to 100 (0 no effect, 100 complete control)
Summary of the method: as §1

[5] = system: crabgrass (Digitaria sanguinalis); conditions: for Crabgrass plant response rating: scale 0 to 100 (0 no effect, 100 complete control)
Summary of the method: as §1

[6] = system: eastern black nightshade (Solanum ptycanthum); conditions: Preemergence
Summary of the method: as §1

[7] = system: lambsquarters (Chenopodium album); conditions: for Lambsquarters plant response rating: scale 0 to 100 (0 no effect, 100 complete control)
Summary of the method: as §1

corn (Zea mays) = conditions: for Corn plant response rating: scale 0 to 100 (0 no effect, 100 complete control)
Summary of the method: as §1

[8] = Postemergence, 250 g ai/ha, scale 0 to 100
[9] = Preemergence, 31 g ai/ha, scale 0 to 100, 0 no effect, 100 complete control
[10] = Preemergence, 62 g ai/ha, scale 0 to 100, 0 no effect, 100 complete control
[11] = Preemergence, 125 g ai/ha, scale 0 to 100
[12] = Preemergence, 250 g ai/ha, scale 0 to 100

CCCCOC(=O)c1nc(C2CC2)nc(N)c1Br [Compound 16]
100: Cocklebur plant response rating ([3]; Postemergence, 125 g ai/ha) | Plant response rating, Cocklebur [3, 8] | Plant response rating, Cocklebur [3, 12] | Plant response rating, Velvetleaf [4, 12] | Plant response rating, Nightshade ([6]; 250 g ai/ha, scale 0 to 100) | Lambsquarters plant response rating ([7]; Postemergence, 62 g ai/ha) | Lambsquarters plant response rating ([7]; Postemergence, 125 g ai/ha) | Plant response rating, Lambsquarters [7, 8] | Plant response rating, Lambsquarters [7, 11] | Plant response rating, Lambsquarters [7, 12]
65: Velvetleaf plant response rating ([4]; Postemergence, 125 g ai/ha) | Plant response rating, Crabgrass [5, 11]
25: Plant response rating, Velvetleaf [4, 9]
15: Crabgrass plant response rating ([5]; Postemergence, 62 g ai/ha) | Plant response rating, Corn (corn (Zea mays); [10])
75: Plant response rating, Bermudagrass [1, 8] | Plant response rating (scale of 0 to 100), Cocklebur ([3]; Postemergence, 31 g ai/ha) | Plant response rating, Crabgrass [5, 8] | Plant response rating, Corn (corn (Zea mays); [12])
0: Plant response rating (scale of 0 to 100), Bermudagrass ([1]; Postemergence, 31 g ai/ha) | Bermudagrass plant response rating ([1]; Postemergence, 62 g ai/ha, scale 0 to 100 (0 no effect, 100 complete control)) | Plant response rating, Bermudagrass [1, 9] | Plant response rating, Bermudagrass [1, 10] | Plant response rating, Bermudagrass [1, 11] | Plant response rating, Bermudagrass [1, 12] | Plant response rating (scale of 0 to 100), Goosegrass ([2]; Postemergence, 31 g ai/ha) | Goosegrass plant response rating ([2]; Postemergence, 62 g ai/ha) | Goosegrass plant response rating ([2]; Postemergence, 125 g ai/ha) | Plant response rating, Goosegrass [2, 9] | Plant response rating, Goosegrass [2, 10] | Plant response rating, Goosegrass [2, 11] | Plant response rating, Goosegrass [2, 12] | Plant response rating (scale of 0 to 100), Crabgrass ([5]; Postemergence, 31 g ai/ha) | Plant response rating, Crabgrass [5, 9] | Plant response rating, Crabgrass [5, 10] | Plant response rating (scale of 0 to 100), Corn (corn (Zea mays); Postemergence, 31 g ai/ha) | Corn plant response rating (corn (Zea mays); Postemergence, 62 g ai/ha) | Plant response rating, Corn (corn (Zea mays); [9])
20: Plant response rating, Goosegrass [2, 8] | Corn plant response rating (corn (Zea mays); Postemergence, 125 g ai/ha) | Plant response rating, Corn (corn (Zea mays); [11])
95: Cocklebur plant response rating ([3]; Postemergence, 62 g ai/ha) | Plant response rating, Cocklebur [3, 10] | Plant response rating, Cocklebur [3, 11] | Plant response rating, Velvetleaf [4, 11] | Plant response rating, Crabgrass [5, 12] | Plant response rating, Nightshade ([6]; 125 g ai/ha, scale 0 to 100) | Plant response rating (scale of 0 to 100), Lambsquarters ([7]; Postemergence, 31 g ai/ha) | Plant response rating, Lambsquarters [7, 9] | Plant response rating, Lambsquarters [7, 10]
45: Plant response rating, Cocklebur [3, 9] | Crabgrass plant response rating ([5]; Postemergence, 125 g ai/ha)
55: Plant response rating (scale of 0 to 100), Velvetleaf ([4]; Postemergence, 31 g ai/ha) | Plant response rating, Nightshade ([6]; 31 g ai/ha, scale 0 to 100, 0 no effect, 100 complete control) | Plant response rating, Corn (corn (Zea mays); [8])
60: Plant response rating, Bermudagrass ([1]; Postemergence, 125 g ai/ha, scale 0 to 100) | Velvetleaf plant response rating ([4]; Postemergence, 62 g ai/ha)
90: Plant response rating, Velvetleaf [4, 8] | Plant response rating, Velvetleaf [4, 10] | Plant response rating, Nightshade ([6]; 62 g ai/ha, scale 0 to 100, 0 no effect, 100 complete control)
